# Assay results reported in US20250049946A1, “SULFONATO RESORCINARENE-COMPLEXED FLUOROQUINOLONES AND METHODS OF USE” (University of Cincinnati, priority 2023, published 2025).
# Columns and labels:
# [1] = system: S. aureus; assay: in vitro antibacterial activity (MIC assay, 96-well, absorbance at 600 nm); type: cell-based, Staphylococcus aureus; conditions: for inhibition of bacterial cells: at higher concentration, S. aureus
# Experimental: (§1) The in vitro antibacterial activity was tested using a Gram-positive bacterial pathogen, S. aureus, and sensitive and resistant strains of a Gram-negative bacterial pathogen, P. aeruginosa using a high-throughput format in a 96-well microtiter plate, as described previously. Briefly, an inoculum of the test organism was grown to mid-log phase in a Luria broth (LB) medium containing 10 g/L tryptone, 5 g/L yeast extract, and 10 g/L sodium chloride. A 50 μL aliquot of the 100-fold diluted bacterial inoculum was placed in each test well. […]. All experiments were performed in triplicate. For each measurement, three samples in each replicate were analyzed and data were recorded as mean±standard deviation (SD). A paired two-tailed t-test was employed for mean comparison, with significance determined at p<0.05. The dcata analysis was conducted using the Excel program.
# (§2) The antibacterial effectiveness of complexed FQs was assessed in comparison to uncomplexed FQs against Gram-positive Staphylococcus aureus (S. aureus) and Gram-negative Pseudomonas aeruginosa (P. aeruginosa) through a minimum inhibitory concentration (MIC) assay conducted at various concentrations. […] The percentage growth inhibition of bacterial cells treated with complexed and uncomplexed FQs was determined by comparing with the untreated control (FIGS. 13A-13C). The concentrations tested for P. aeruginosa and S. aureus varied based on the MIC of individual antibiotics. […]
# [2] = system: P. aeruginosa; assay: as above; type: cell-based, Pseudomonas aeruginosa; conditions: for inhibition of bacterial cells: at higher concentration, P. aeruginosa
# Experimental: as §1, §2
# [3] = partition coefficient (Ko/w) n-octanol / phosphate buffer; type: physicochemical; conditions: octanol / phosphate buffer pH 7.4, 25 °C, 24 h; complexes with 10 times higher host stock
log P (experimental partition coefficient Ko/w) [3],SMILES,"killing of S. aureus ([1]; 12 μg/mL, 24 h, FIG. 13A) [%]",inhibition of bacterial cells [1] [%],"killing of P. aeruginosa bacteria ([2]; 4 μg/mL, 24 h, FIG. 13A) [%]",inhibition of bacterial cells [2] [%],"inhibition at 128 µg/mL ([1]; Staphylococcus aureus, 128 μg/mL, 24 h, FIG. 13B, read-out: inhibitory effect on S. aureus cells) [%]","inhibitory effect on P. aeruginosa cells ([2]; […] (so in the source), 24 h, FIG. 13B) [%]"
–,"O=C(O)c1cn(C2CC2)c2cc(N3CCNCC3)c(F)cc2c1=O [CIPRO, ciprofloxacin]",98.30±0.26,90,100.67±0.39,90,–,–
−0.41,"C[C@H]1COc2c(N3CCN(C)CC3)c(F)cc3c(=O)c(C(=O)O)cn1c23 [LEVO, levofloxacin]",–,90,–,90,–,–
–,"CCn1cc(C(=O)O)c(=O)c2cc(F)c(N3CCNCC3)cc21 [NOR, norfloxacin]",–,90,–,90,97.9 ± 0.38,100.43±0.17
−0.99,"CC1c2cc(c(O)c(CS(=O)(=O)O)c2O)C(C)c2cc(c(O)c(CS(=O)(=O)O)c2O)C(C)c2cc(c(O)c(CS(=O)(=O)O)c2O)C(C)c2cc1c(O)c(CS(=O)(=O)O)c2O (stereo not drawn) [SRsC1, sulfonato-C-methylresorcin[4]arene]",–,–,–,–,–,–
